Experimental findings from patent publication US9249125B2, “Pyrazole derivatives as p38 MAP inhibitors” (RESPIVERT LIMITED, priority 2012, dated 2016) are described below.

One data set concerns the target p38 MAPKα (Homo sapiens (Human), UniProt Q16539). As to the kind of experiment: p38 MAPKα enzyme inhibition (FRET, Z-LYTE). The data set is classed as biochemical.
In another data set the target is cSrc (Homo sapiens (Human), UniProt P12931). As to the kind of experiment: c-Src enzyme inhibition (FRET, Z-LYTE). The class given is biochemical. An outline of the steps: (§1)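 Z-LYTE FRET kinase assay: enzyme (3000 or 2000 ng/mL stock, respectively) preincubated 2 h at RT with compound (4–0.004 μg/mL stocks), then FRET peptide plus ATP (800 μM stock for c-Src, 60 μM for Syk) added for 1 h. Protease development 1 h; phosphorylation from coumarin/fluorescein emission ratio.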

The target in the next data set is Syk (Homo sapiens (Human), UniProt P43405). As to the kind of experiment: Syk enzyme inhibition (FRET, Z-LYTE). The data set is classed as biochemical. An outline of the steps: as §1
The target of a further data set is GSK3α (Homo sapiens (Human), UniProt P49840). As to the kind of experiment: GSK 3α enzyme inhibition (FRET, Z-LYTE). The data set is classed as biochemical. An outline of the steps:
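GSK3α (500 ng/mL stock) was preincubated 2 hr at RT with compound (4 to 0.004 μg/mL stocks), then FRET peptide (8 μM stock) and ATP (40 μM stock) added for 1 hr. Protease development for 1 hr cleaved unphosphorylated peptide; coumarin/fluorescein emission ratio reported phosphorylation.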

The test system of data set [1] is LPS-induced TNFα release in d-U937 cells. As to the kind of experiment: LPS-induced TNFα release in d-U937 cells. The class given is cell-based. The following applies: Homo sapiens, dU937, relative to 10 μg/mL BIRB796, read-out: LPS Induced Release of Cytokine in d-937 Cells TNFα REC50. An outline of the steps: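 Sandwich ELISA of culture supernatant gives TNFα and IL-8 levels after a 4 hr challenge with LPS (0.1 μg/mL, E. coli O111:B4). Before stimulation, macrophage-like U937 cells, obtained by 48–72 hr in PMA at 100 ng/mL, sit with compound for 2 hr. Relative EC50 is derived from concentration-response data.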

Data set [2] relates to LPS-induced IL-8 release in d-U937 cells. Description: LPS-induced IL-8 release in d-U937 cells. The data set is classed as cell-based. The note with it: Homo sapiens, dU937, read-out: LPS Induced Release of Cytokine in d-937 Cells IL-8 IC50. An outline of the steps: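 First, U937 monocytes undergo PMA treatment (100 ng/mL) for 48 to 72 hr to become macrophage-type. Next, compound at final concentrations is added for 2 hr, followed by LPS at 0.1 μg/mL for 4 hr. Finally, cytokines in the supernatant are quantified by ELISA against vehicle-treated cells.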

In data set [3] the test system is Poly I:C-induced ICAM-1 expression in BEAS2B cells. As to the kind of experiment: Poly I:C-induced ICAM-1 expression in BEAS2B cells. The data set is classed as cell-based. The note with it: Homo sapiens, BEAS-2B, read-out: Poly IC induced ICAM1 in BEAS2B IC50. An outline of the steps:
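BEAS2B human bronchial epithelial cells pre-incubated with compound for 2 hr, then transfected with 1 μg/mL poly I:C plus Oligofectamine. At 18 hr, surface ICAM-1 measured by cell-based ELISA (HRP, OD450–655). Signal corrected for cell number by crystal violet OD595.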

For another data set, the system named is d-U937 cells. As to the kind of experiment: Cell viability: MTT assay. The data set is classed as cell-based, human. The note with it: 1 μg/mL. An outline of the steps:
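Differentiated U937 cells were exposed to compound at 1 or 10 μg/mL either 4 h in 5% FCS RPMI1640 or 24 h in 10% FCS RPMI1640, then given MTT for 1 h, DMSO-solubilised and read at 550 nm. Percent viability loss versus 0.5% DMSO vehicle; apparent gains appear negative.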
(In general: Tetrazolium dyes change colour on reduction, which living cells bring about.)

Broadly, the IC50 is the concentration needed to halve the response being measured.

Some results are limits rather than exact numbers.

Chain of p38 MAPKα (Q16539 whole entry): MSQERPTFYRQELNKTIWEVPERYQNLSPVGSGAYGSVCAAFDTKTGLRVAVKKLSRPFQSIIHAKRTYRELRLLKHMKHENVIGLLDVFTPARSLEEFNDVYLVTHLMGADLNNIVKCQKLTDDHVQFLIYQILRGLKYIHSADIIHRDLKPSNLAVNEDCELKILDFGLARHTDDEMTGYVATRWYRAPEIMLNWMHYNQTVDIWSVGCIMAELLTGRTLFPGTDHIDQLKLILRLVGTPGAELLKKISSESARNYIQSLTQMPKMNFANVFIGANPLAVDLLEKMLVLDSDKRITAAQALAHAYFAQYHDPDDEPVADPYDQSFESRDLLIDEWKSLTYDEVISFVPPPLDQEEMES
Chain of cSrc (P12931 whole entry, looked up): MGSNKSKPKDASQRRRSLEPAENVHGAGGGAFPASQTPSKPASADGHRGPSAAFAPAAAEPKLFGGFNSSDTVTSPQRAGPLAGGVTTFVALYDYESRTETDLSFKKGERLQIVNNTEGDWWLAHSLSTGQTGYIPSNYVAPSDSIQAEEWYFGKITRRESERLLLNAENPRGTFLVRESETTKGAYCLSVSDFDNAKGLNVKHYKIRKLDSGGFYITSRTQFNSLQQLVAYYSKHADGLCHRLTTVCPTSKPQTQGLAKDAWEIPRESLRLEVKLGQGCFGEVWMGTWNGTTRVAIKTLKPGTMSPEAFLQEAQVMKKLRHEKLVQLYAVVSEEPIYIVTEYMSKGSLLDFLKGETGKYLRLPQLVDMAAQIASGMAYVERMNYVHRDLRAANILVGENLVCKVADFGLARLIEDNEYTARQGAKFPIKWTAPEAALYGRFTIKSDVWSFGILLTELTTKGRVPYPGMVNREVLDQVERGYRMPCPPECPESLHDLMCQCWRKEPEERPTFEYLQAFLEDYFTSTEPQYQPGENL
Chain of GSK3α (P49840 whole entry): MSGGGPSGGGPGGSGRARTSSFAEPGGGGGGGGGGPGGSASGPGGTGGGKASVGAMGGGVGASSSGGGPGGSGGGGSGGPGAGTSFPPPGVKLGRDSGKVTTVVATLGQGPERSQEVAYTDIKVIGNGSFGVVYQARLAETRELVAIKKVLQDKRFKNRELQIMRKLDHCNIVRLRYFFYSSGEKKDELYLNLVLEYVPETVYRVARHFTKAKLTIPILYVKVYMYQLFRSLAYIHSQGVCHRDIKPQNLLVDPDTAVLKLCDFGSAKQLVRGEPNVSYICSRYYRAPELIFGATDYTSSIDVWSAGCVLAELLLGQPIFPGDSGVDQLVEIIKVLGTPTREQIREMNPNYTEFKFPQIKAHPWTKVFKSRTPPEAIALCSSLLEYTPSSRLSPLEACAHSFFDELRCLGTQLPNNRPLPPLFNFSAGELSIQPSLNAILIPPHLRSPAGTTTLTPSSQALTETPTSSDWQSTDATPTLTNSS

Take `Cc1cc(Nc2nccc(Oc3ccc(NC(=O)Nc4cc(C(C)C)nn4-c4cccc(OCCN5CCOCC5)c4)c4ccccc34)n2)cc2cn[nH]c12` [Example 55, 1-(3-isopropyl-1-(3-(2-morpholinoethoxy)phenyl)-1H-pyrazol-5-yl)-3-(4-((2-((7-methyl-1H-indazol-5-yl)amino)pyrimidin-4-yl)oxy)naphthalen-1-yl)urea]: the IC50 against p38 MAPKα was 0.007 µM; on cSrc, under 0.001 µM; at Syk it was under 0.001 µM; on GSK3α, over 13.5 µM; in data set [2] it was 0.0434 µM; in data set [3] it was 0.0508 µM. Also, the EC50 in data set [1] came out at 0.0039 µM. Also, the “MTT Assay Cell viability at time point in d-U937 cells 4 h” value with d-U937 cells was “−ve (−ve and +ve indicate that the value is below and above respectively, the no significant effect threshold, defined as 30% inhibition at 1 μg/mL at the time point indicated.)”. Moreover, in the data set on d-U937 cells, the “MTT Assay Cell viability at time point in d-U937 cells 24 h” value is “−ve (−ve and +ve indicate that the value is below and above respectively, the no significant effect threshold, defined as 30% inhibition at 1 μg/mL at the time point indicated.)”.

Regarding `Cc1nc2cc(Nc3nccc(Oc4ccc(NC(=O)Nc5cc(C(C)(C)C)nn5-c5ccc(OCCN6CCOCC6)cc5)c5ccccc45)n3)ccc2[nH]1` [Example 75, 1-(3-(tert-butyl)-1-(4-(2-morpholinoethoxy)phenyl)-1H-pyrazol-5-yl)-3-(4-((2-((2-methyl-1H-benzo[d]imidazol-6-yl)amino)pyrimidin-4-yl)oxy)naphthalen-1-yl)urea], the IC50 on p38 MAPKα is 0.036 µM; on cSrc, under 0.001 µM; against Syk, under 0.001 µM; on GSK3α it was 4.95 µM; in data set [2], 0.0439 µM; in data set [3], 0.0163 µM. In data set [1], the EC50 stood at 0.0142 µM. Besides, the “MTT Assay Cell viability at time point in d-U937 cells 4 h” value in the data set with d-U937 cells is “−ve (−ve and +ve indicate that the value is below and above respectively, the no significant effect threshold, defined as 30% inhibition at 1 μg/mL at the time point indicated.)”. The “MTT Assay Cell viability at time point in d-U937 cells 24 h” value in the data set with d-U937 cells is “−ve (−ve and +ve indicate that the value is below and above respectively, the no significant effect threshold, defined as 30% inhibition at 1 μg/mL at the time point indicated.)”.

Take `COCCOc1cccc(-n2nc(C(C)(C)C)cc2NC(=O)Nc2ccc(Oc3ccnc(Nc4cc(C)c5[nH]ncc5c4)c3)c3ccccc23)c1` [Example 57]: the IC50 against p38 MAPKα is 0.074 µM; at cSrc, 0.019 µM; against Syk, 0.015 µM; against GSK3α, 4.7 µM; in data set [2], 0.0023 µM; in data set [3], 0.0044 µM. The EC50 in data set [1] worked out at 0.0011 µM. In addition, the “MTT Assay Cell viability at time point in d-U937 cells 4 h” value in the data set on d-U937 cells is “−ve (−ve and +ve indicate that the value is below and above respectively, the no significant effect threshold, defined as 30% inhibition at 1 μg/mL at the time point indicated.)”. Besides, in the data set on d-U937 cells, the “MTT Assay Cell viability at time point in d-U937 cells 24 h” value is “−ve (−ve and +ve indicate that the value is below and above respectively, the no significant effect threshold, defined as 30% inhibition at 1 μg/mL at the time point indicated.)”.

As to `Cc1ccc(-n2nc(C(C)(C)C)cc2NC(=O)Nc2ccc(Oc3ccnc(Nc4ccc5c(cnn5CCN5CCOCC5)c4)n3)c3ccccc23)cc1` [Example 29, 1-(3-(tert-butyl)-1-(p-tolyl)-1H-pyrazol-5-yl)-3-(4-((2-((1-(2-morpholinoethyl)-1H-indazol-5-yl)amino)pyrimidin-4-yl)oxy)naphthalen-1-yl)urea], the IC50 at p38 MAPKα was found to be 0.057 µM; at cSrc, 0.012 µM; at Syk, 0.029 µM; against GSK3α, 0.582 µM; in data set [2], 0.0211 µM; in data set [3], 0.0009 µM. Further, the EC50 in data set [1] is 0.0099 µM. Also, in the data set with d-U937 cells, the “MTT Assay Cell viability at time point in d-U937 cells 4 h” value was “−ve (−ve and +ve indicate that the value is below and above respectively, the no significant effect threshold, defined as 30% inhibition at 1 μg/mL at the time point indicated.)”. Also, the “MTT Assay Cell viability at time point in d-U937 cells 24 h” value in the data set on d-U937 cells was “−ve (−ve and +ve indicate that the value is below and above respectively, the no significant effect threshold, defined as 30% inhibition at 1 μg/mL at the time point indicated.)”.

As for `CC(C)c1cc(NC(=O)Nc2ccc(Oc3ccnc(Nc4ccc5[nH]ncc5c4)n3)c3ccccc23)n(-c2ccc(=O)n(CCO)c2)n1` [Example 85, 1-(4-((2-((1H-indazol-5-yl)amino)pyrimidin-4-yl)oxy)naphthalen-1-yl)-3-(1-(1-(2-hydroxyethyl)-6-oxo-1,6-dihydropyridin-3-yl)-3-isopropyl-1H-pyrazol-5-yl)urea], the IC50 against p38 MAPKα was 0.008 µM; at cSrc, under 0.002 µM; against Syk it was 0.015 µM; on GSK3α, 2.53 µM; in data set [2], 0.0544 µM; in data set [3], 0.0702 µM. Further, the EC50 in data set [1] worked out at 0.0197 µM. For the same compound, in the data set on d-U937 cells, the “MTT Assay Cell viability at time point in d-U937 cells 4 h” value was “−ve (−ve and +ve indicate that the value is below and above respectively, the no significant effect threshold, defined as 30% inhibition at 1 μg/mL at the time point indicated.)”. Besides, the “MTT Assay Cell viability at time point in d-U937 cells 24 h” value with d-U937 cells is “−ve (−ve and +ve indicate that the value is below and above respectively, the no significant effect threshold, defined as 30% inhibition at 1 μg/mL at the time point indicated.)”.

As for `COc1ccc(-n2nc(C(C)(C)C)cc2NC(=O)Nc2ccc(Oc3ccnc(Nc4ccc5[nH]nc(C(=O)N(C)C)c5c4)n3)c3ccccc23)cc1` [Example 47, 5-((4-((4-(3-(3-(tert-butyl)-1-(4-methoxyphenyl)-1H-pyrazol-5-yl)ureido)naphthalen-1-yl)oxy)pyrimidin-2-yl)amino)-N,N-dimethyl-1H-indazole-3-carboxamide], the IC50 against p38 MAPKα is 0.032 µM; against cSrc, under 0.001 µM; against Syk, 0.005 µM; at GSK3α it was 0.472 µM; in data set [2] it was 0.0033 µM; in data set [3], 0.0005 µM. Further, the EC50 in data set [1] came out at 0.0009 µM. In the data set with d-U937 cells, the “MTT Assay Cell viability at time point in d-U937 cells 4 h” value was “−ve (−ve and +ve indicate that the value is below and above respectively, the no significant effect threshold, defined as 30% inhibition at 1 μg/mL at the time point indicated.)”. Moreover, the “MTT Assay Cell viability at time point in d-U937 cells 24 h” value in the data set on d-U937 cells is “−ve (−ve and +ve indicate that the value is below and above respectively, the no significant effect threshold, defined as 30% inhibition at 1 μg/mL at the time point indicated.)”.

Take `CC(C)(C)c1cc(NC(=O)Nc2ccc(Oc3ccnc(Nc4ccc5c(c4)CCC5)n3)c3ccccc23)n(-c2ccc(OCCN3CCOCC3)cc2)n1` [Example 59, 1-(3-(tert-butyl)-1-(4-(2-morpholinoethoxy)phenyl)-1H-pyrazol-5-yl)-3-(4-((2-((2,3-dihydro-1H-inden-5-yl)amino)pyrimidin-4-yl)oxy)naphthalen-1-yl)urea]: the IC50 was 0.098 µM against p38 MAPKα; 0.023 µM on cSrc; 0.028 µM against Syk; over 9.23 µM at GSK3α; 0.0168 µM in data set [2]; 0.0001 µM in data set [3]. For the same compound, the EC50 in data set [1] came to 0.0126 µM. The “MTT Assay Cell viability at time point in d-U937 cells 4 h” value in the data set with d-U937 cells was “−ve (−ve and +ve indicate that the value is below and above respectively, the no significant effect threshold, defined as 30% inhibition at 1 μg/mL at the time point indicated.)”. In addition, the “MTT Assay Cell viability at time point in d-U937 cells 24 h” value in the data set on d-U937 cells was “−ve (−ve and +ve indicate that the value is below and above respectively, the no significant effect threshold, defined as 30% inhibition at 1 μg/mL at the time point indicated.)”.

`Cc1cc(Nc2nccc(Oc3ccc(NC(=O)Nc4cc(C(C)(C)C)nn4-c4ccc(=O)n(CCO)c4)c4ccccc34)n2)cc2cn[nH]c12` [Example 87, 1-(3-(tert-butyl)-1-(1-(2-hydroxyethyl)-6-oxo-1,6-dihydropyridin-3-yl)-1H-pyrazol-5-yl)-3-(4-((2-((7-methyl-1H-indazol-5-yl)amino)pyrimidin-4-yl)oxy)naphthalen-1-yl)urea]: the IC50 against p38 MAPKα was determined as 0.045 µM; at cSrc, 0.002 µM; on Syk, 0.004 µM; at GSK3α, 1.1 µM; in data set [2] it was 0.0023 µM; in data set [3], 0.001 µM. The EC50 in data set [1] worked out at 0.0017 µM. Moreover, the “MTT Assay Cell viability at time point in d-U937 cells 4 h” value in the data set with d-U937 cells is “−ve (−ve and +ve indicate that the value is below and above respectively, the no significant effect threshold, defined as 30% inhibition at 1 μg/mL at the time point indicated.)”. Moreover, the “MTT Assay Cell viability at time point in d-U937 cells 24 h” value in the data set on d-U937 cells was “−ve (−ve and +ve indicate that the value is below and above respectively, the no significant effect threshold, defined as 30% inhibition at 1 μg/mL at the time point indicated.)”.
